Experimental data published in PMC8162404, “Proteomimetic surface fragments distinguish targets by function” (Chemical Science, 2020).

Key:
Test in all cases: Pull-down assay with immobilized protein and LSM libraries
[1] = target: T1, CaM (Bos taurus, UniProt P62157); assay type: binding, bovine; conditions: H12 library; 1:2 stoichiometry assumed; read-out: Surface mapping KD (apparent)
T1 construct: made in house; host or cells: E. coli BL21 (DE3)
Experimental: Pull-down assays with immobilized test proteins and foldameric LSM libraries were carried out. Proteins were equilibrated with LSM probes, and equilibrium bound fractions (FB) were determined from the unbound fractions measured by HPLC-MS methods. Hits were corrected with background binding of the resin. The protocol allowed all binding events to equilibrate irrespective of affinity, specificity, and binding kinetics. This was essential to judge overall druggability and promiscuity. Importantly, the concentration of protein and the total concentration of foldameric LSMs were equimolar, which minimized competition between the probes. This experimental setup approximated independent binding of individual library members. Results were visualized as heat maps of dissociation constants (Fig. 3).
Pull-down assay and data analysis
Pull-down assay. LSM sublibraries were screened separately as previously described.(2) Experiments were performed in the following buffers: (i) 20 mM pH 7.4 HEPES, 150 mM NaCl, 5 mM CaCl2 for CaM; (ii) 50 mM pH 7.4 HEPES, 150 mM NaCl, 1 mM TCEP, 1 mM CaCl2 for S100 proteins; (iii) 20 mM pH 7.4 HEPES, 150 mM NaCl, 1 mM TCEP for Gal-1 and (iv) 20 mM pH 7.4 HEPES, 150 mM NaCl for RecQ-WH. Assays were performed in paper filter spin cups (Thermo Scientific) with sample volumes of 100 µl. Hexahistidine-tagged proteins were immobilized on previously washed Co-NTA resin (TALON, Takara Bio USA, Inc., […]
LSM sublibrary was added, in which each of the 64 library members were used at a concentration of 1 µM. Samples were incubated at room temperature for 30 min with shaking at 100 rpm. Then, samples were centrifuged at 1000 rpm for 2 min and washed with 100 µl pull-down buffer to remove unbound compounds.
The control experiments were performed using the same compounds and the resin but without the immobilized protein. In case of competitive assays, competitor peptides were added to LSM sublibrary samples in 200 µM final concentration. In the case of Gal-1, lactose (competitor) was used in a concentration of 10 mM. Experiments were performed at least twice. Mean […]
LC-MS methods and parameters. HPLC/ESI-MS analysis was used to characterize the samples from the pull-down assay. LC-MS analysis was performed with a Thermo Scientific Dionex UltiMate 3000 HPLC system interfaced to an LTQ ion trap mass spectrometer (Thermo Electron Corp., San Jose, CA, USA). Samples were injected onto an Aeris Widepore XB-C18 (250 x 4.6 mm) analytical HPLC column using gradient elution 5-80 % solution B during 25 minutes. For pull-down samples, eluent composition was 0.1% acetic acid in distilled water (Solution A) and 0.1% acetic acid in acetonitrile (solution B). Mass spectra were acquired in full scan mode from 200 to 2000 m/z range. For overlapping peaks, selective reaction monitoring (SRM) was […]
MS data analysis. Thermo Xcalibur 2.2 software was used for peak identification and integration. The majority of the foldameric fragments could be resolved independently via HPLC-MS/MS measurements based on molecular weight, MS fragmentation pattern and retention time. Peaks of some foldamers with β3-hIle or β3-hLeu in position R2 could not be resolved, these were integrated and averaged. In the processing method, each sample component was associated to a chromatographic peak based on previously identified mass (m/z) and retention time (ref (2) and Table S7-10). Using ICIS peak detection algorithm, the general detection and integration criteria were: smoothing points: 5, baseline window: 80, area noise factor: 5, peak noise factor: 10. Using these processing setups, all raw data files were reprocessed together and analyzed. Errors in peak identification during the automatic processing were corrected manually.
Calculation of the discussed parameters
1. Bound fractions (FB.) were calculated from the HPLC-MS intensity loss of the LSM probes compared to the control where no protein was immobilized to the resin: […]

[2] = target: T2, S100B (Homo sapiens, UniProt P04271); assay type: binding; conditions: H12 library; 1:1 binding assumed; read-out: Surface mapping KD (apparent)
T2 construct: made in house; host or cells: Escherichia coli BL21(DE3)
T2 sequence (P04271 1-92): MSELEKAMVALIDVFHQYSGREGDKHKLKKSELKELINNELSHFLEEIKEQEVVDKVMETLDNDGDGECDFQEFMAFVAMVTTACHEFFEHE
How it was run: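 Buffers were HEPES pH 7.4 with 150 mM NaCl, plus 1 mM TCEP and 1 mM CaCl2 (50 mM HEPES) for S100A4 and S100B, 1 mM TCEP for Gal-1, and no additive for RecQ-WH. Immobilized protein at 64 µM was equilibrated 30 min with the LSM sublibrary, and unbound probes were measured by LC-MS.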

[3] = target: T3, Gal-1 (Homo sapiens, UniProt P09382); assay type: binding; conditions: H12 library; 1:1 binding assumed; read-out: Surface mapping KD (apparent)
T3 construct: made in house; host or cells: E. coli BL21(DE3)
How it was run: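 His-tagged protein immobilized on Co-NTA resin (64 µM) in 20 mM HEPES pH 7.4, 150 mM NaCl, equilibrated 30 min at room temperature with foldamer LSM sublibraries at equimolar total concentration. Unbound fractions quantified by HPLC-MS versus protein-free resin control; apparent KD assumes 1:1 binding.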

T3 sequence (P09382 whole entry): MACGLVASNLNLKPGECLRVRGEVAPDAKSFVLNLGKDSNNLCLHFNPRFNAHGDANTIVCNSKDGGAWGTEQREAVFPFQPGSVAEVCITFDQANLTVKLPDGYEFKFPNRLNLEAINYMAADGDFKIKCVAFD

Structure (SMILES)	Kd [1]	Kd [2]	Kd [3]
C[C@@H](CC(=O)N[C@H]1CCC[C@@H]1C(=O)N[C@H]1CCC[C@@H]1C(N)=O)NC(=O)[C@H]1CCC[C@@H]1NC(=O)[C@H]1CCC[C@@H]1NC(=O)C[C@H](CC(N)=O)NC(=O)[C@H]1CCC[C@@H]1NC(=O)[C@H]1CCC[C@@H]1N [H12 NA]	447 µM	–	–
NC(=O)C[C@@H](CC(=O)N[C@H]1CCC[C@@H]1C(=O)N[C@H]1CCC[C@@H]1C(=O)N[C@@H](CC(=O)O)CC(=O)N[C@H]1CCC[C@@H]1C(=O)N[C@H]1CCC[C@@H]1C(N)=O)NC(=O)[C@H]1CCC[C@@H]1NC(=O)[C@H]1CCC[C@@H]1N [H12 ND]	400 µM	–	–
N=C(N)NCCC[C@@H](CC(=O)N[C@H]1CCC[C@@H]1C(=O)N[C@H]1CCC[C@@H]1C(N)=O)NC(=O)[C@H]1CCC[C@@H]1NC(=O)[C@H]1CCC[C@@H]1NC(=O)C[C@H](CO)NC(=O)[C@H]1CCC[C@@H]1NC(=O)[C@H]1CCC[C@@H]1N [H12 SR]	–	123 µM	402 µM
CC(C)[C@@H](CC(=O)N[C@H]1CCC[C@@H]1C(=O)N[C@H]1CCC[C@@H]1C(=O)N[C@@H](CCCCN)CC(=O)N[C@H]1CCC[C@@H]1C(=O)N[C@H]1CCC[C@@H]1C(N)=O)NC(=O)[C@H]1CCC[C@@H]1NC(=O)[C@H]1CCC[C@@H]1N [H12 VK]	–	185 µM	430 µM
CSCC[C@@H](CC(=O)N[C@H]1CCC[C@@H]1C(=O)N[C@H]1CCC[C@@H]1C(N)=O)NC(=O)[C@H]1CCC[C@@H]1NC(=O)[C@H]1CCC[C@@H]1NC(=O)C[C@@H](NC(=O)[C@H]1CCC[C@@H]1NC(=O)[C@H]1CCC[C@@H]1N)C(C)C [H12 VM]	–	303 µM	459 µM
CC(C)[C@@H](CC(=O)N[C@H]1CCC[C@@H]1C(=O)N[C@H]1CCC[C@@H]1C(=O)N[C@@H](CCCNC(=N)N)CC(=O)N[C@H]1CCC[C@@H]1C(=O)N[C@H]1CCC[C@@H]1C(N)=O)NC(=O)[C@H]1CCC[C@@H]1NC(=O)[C@H]1CCC[C@@H]1N [H12 VR]	–	118 µM	234 µM
CC(C)[C@@H](CC(=O)N[C@H]1CCC[C@@H]1C(=O)N[C@H]1CCC[C@@H]1C(N)=O)NC(=O)[C@H]1CCC[C@@H]1NC(=O)[C@H]1CCC[C@@H]1NC(=O)C[C@@H](NC(=O)[C@H]1CCC[C@@H]1NC(=O)[C@H]1CCC[C@@H]1N)C(C)C [H12 VV]	–	277 µM	439 µM
NC(=O)[C@H]1CCC[C@@H]1NC(=O)[C@H]1CCC[C@@H]1NC(=O)C[C@H](CC(=O)O)NC(=O)[C@H]1CCC[C@@H]1NC(=O)[C@H]1CCC[C@@H]1NC(=O)C[C@H](Cc1c[nH]c2ccccc12)NC(=O)[C@H]1CCC[C@@H]1NC(=O)[C@H]1CCC[C@@H]1N [H12 WD]	–	199 µM	297 µM
NC(=O)[C@H]1CCC[C@@H]1NC(=O)[C@H]1CCC[C@@H]1NC(=O)C[C@H](CCC(=O)O)NC(=O)[C@H]1CCC[C@@H]1NC(=O)[C@H]1CCC[C@@H]1NC(=O)C[C@H](Cc1c[nH]c2ccccc12)NC(=O)[C@H]1CCC[C@@H]1NC(=O)[C@H]1CCC[C@@H]1N [H12 WE]	–	229 µM	256 µM
NC(=O)C[C@@H](CC(=O)N[C@H]1CCC[C@@H]1C(=O)N[C@H]1CCC[C@@H]1C(N)=O)NC(=O)[C@H]1CCC[C@@H]1NC(=O)[C@H]1CCC[C@@H]1NC(=O)C[C@H](Cc1c[nH]c2ccccc12)NC(=O)[C@H]1CCC[C@@H]1NC(=O)[C@H]1CCC[C@@H]1N [H12 WN]	–	55 µM	270 µM
NC(=O)CC[C@@H](CC(=O)N[C@H]1CCC[C@@H]1C(=O)N[C@H]1CCC[C@@H]1C(N)=O)NC(=O)[C@H]1CCC[C@@H]1NC(=O)[C@H]1CCC[C@@H]1NC(=O)C[C@H](Cc1c[nH]c2ccccc12)NC(=O)[C@H]1CCC[C@@H]1NC(=O)[C@H]1CCC[C@@H]1N [H12 WQ]	–	53 µM	304 µM
C[C@@H](CC(=O)N[C@H]1CCC[C@@H]1C(=O)N[C@H]1CCC[C@@H]1C(N)=O)NC(=O)[C@H]1CCC[C@@H]1NC(=O)[C@H]1CCC[C@@H]1NC(=O)C[C@H](Cc1ccc(O)cc1)NC(=O)[C@H]1CCC[C@@H]1NC(=O)[C@H]1CCC[C@@H]1N [H12 YA]	–	95 µM	222 µM
NC(=O)[C@H]1CCC[C@@H]1NC(=O)[C@H]1CCC[C@@H]1NC(=O)C[C@H](CC(=O)O)NC(=O)[C@H]1CCC[C@@H]1NC(=O)[C@H]1CCC[C@@H]1NC(=O)C[C@H](Cc1ccc(O)cc1)NC(=O)[C@H]1CCC[C@@H]1NC(=O)[C@H]1CCC[C@@H]1N [H12 YD]	–	430 µM	205 µM
NC(=O)[C@H]1CCC[C@@H]1NC(=O)[C@H]1CCC[C@@H]1NC(=O)C[C@H](CCC(=O)O)NC(=O)[C@H]1CCC[C@@H]1NC(=O)[C@H]1CCC[C@@H]1NC(=O)C[C@H](Cc1ccc(O)cc1)NC(=O)[C@H]1CCC[C@@H]1NC(=O)[C@H]1CCC[C@@H]1N [H12 YE]	–	459 µM	198 µM
NC(=O)C[C@@H](CC(=O)N[C@H]1CCC[C@@H]1C(=O)N[C@H]1CCC[C@@H]1C(N)=O)NC(=O)[C@H]1CCC[C@@H]1NC(=O)[C@H]1CCC[C@@H]1NC(=O)C[C@H](Cc1ccc(O)cc1)NC(=O)[C@H]1CCC[C@@H]1NC(=O)[C@H]1CCC[C@@H]1N [H12 YN]	–	237 µM	181 µM
NC(=O)CC[C@@H](CC(=O)N[C@H]1CCC[C@@H]1C(=O)N[C@H]1CCC[C@@H]1C(N)=O)NC(=O)[C@H]1CCC[C@@H]1NC(=O)[C@H]1CCC[C@@H]1NC(=O)C[C@H](Cc1ccc(O)cc1)NC(=O)[C@H]1CCC[C@@H]1NC(=O)[C@H]1CCC[C@@H]1N [H12 YQ]	–	222 µM	176 µM
N=C(N)NCCC[C@@H](CC(=O)N[C@H]1CCC[C@@H]1C(=O)N[C@H]1CCC[C@@H]1C(N)=O)NC(=O)[C@H]1CCC[C@@H]1NC(=O)[C@H]1CCC[C@@H]1NC(=O)C[C@H](Cc1ccc(O)cc1)NC(=O)[C@H]1CCC[C@@H]1NC(=O)[C@H]1CCC[C@@H]1N [H12 YR]	–	65 µM	61 µM
NC(=O)[C@H]1CCC[C@@H]1NC(=O)[C@H]1CCC[C@@H]1NC(=O)C[C@H](CO)NC(=O)[C@H]1CCC[C@@H]1NC(=O)[C@H]1CCC[C@@H]1NC(=O)C[C@H](Cc1ccc(O)cc1)NC(=O)[C@H]1CCC[C@@H]1NC(=O)[C@H]1CCC[C@@H]1N [H12 YS]	–	195 µM	194 µM
C[C@@H](O)[C@@H](CC(=O)N[C@H]1CCC[C@@H]1C(=O)N[C@H]1CCC[C@@H]1C(N)=O)NC(=O)[C@H]1CCC[C@@H]1NC(=O)[C@H]1CCC[C@@H]1NC(=O)C[C@H](Cc1ccc(O)cc1)NC(=O)[C@H]1CCC[C@@H]1NC(=O)[C@H]1CCC[C@@H]1N [H12 YT]	–	251 µM	300 µM
CC(C)[C@@H](CC(=O)N[C@H]1CCC[C@@H]1C(=O)N[C@H]1CCC[C@@H]1C(N)=O)NC(=O)[C@H]1CCC[C@@H]1NC(=O)[C@H]1CCC[C@@H]1NC(=O)C[C@H](Cc1ccc(O)cc1)NC(=O)[C@H]1CCC[C@@H]1NC(=O)[C@H]1CCC[C@@H]1N [H12 YV]	–	166 µM	364 µM
